Results from BindingDB's records for PubMed 1513320 (Synaptic Pharmaceutical, 1992).

target: 5-hydroxytryptamine receptor 1E (Homo sapiens, UniProt P28566)
Sequence (P28566 whole entry): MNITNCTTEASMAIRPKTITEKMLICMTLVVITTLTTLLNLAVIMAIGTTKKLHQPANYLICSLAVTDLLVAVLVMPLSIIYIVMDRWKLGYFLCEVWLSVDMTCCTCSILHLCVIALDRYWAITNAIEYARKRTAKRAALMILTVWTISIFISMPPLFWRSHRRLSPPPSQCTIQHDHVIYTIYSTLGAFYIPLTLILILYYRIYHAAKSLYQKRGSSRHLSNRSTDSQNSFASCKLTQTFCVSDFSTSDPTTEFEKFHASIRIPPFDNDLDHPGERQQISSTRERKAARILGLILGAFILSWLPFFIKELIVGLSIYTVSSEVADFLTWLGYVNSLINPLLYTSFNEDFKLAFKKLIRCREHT

First: O=C(c1ccc(F)cc1)C1CCN(CCn2c(=O)[nH]c3ccccc3c2=O)CC1 [3-(2-{4-[(4-fluorophenyl)carbonyl]piperidin-1-yl}ethyl)-1,2,3,4-tetrahydroquinazoline-2,4-dione]
Second: COC(=O)[C@@H]1[C@H]2C[C@H]3c4[nH]c5ccccc5c4CCN3C[C@@H]2CC[C@@H]1O [yohimbic acid methyl ester]
The Ki of the first is higher: over 10 µM for the first, 3.43 µM for the second.

Compared with Cn1cc(CCN)c2cc(O)ccc21 [5-HT,omega-N-Me], NCCc1c[nH]c2ccc(C(N)=O)cc12 [[3H]-5-carboxamidotryptamine] is higher in Ki: 0.121 µM for the first, over 10 µM for the second.

Compared with CC(CO)NC(=O)C1C=C2c3cccc4[nH]cc(c34)CC2N(C)C1 (stereo not drawn) [CAS_60-79-7], CC(C)NCC(O)COc1cccc2[nH]ccc12 (stereo not drawn) [LB-46] is higher in Ki: 0.088 µM for the first, over 10 µM for the second. The first binds more tightly here.

CCC(=O)c1ccc(N)cc1 [CAS_6270] and COc1cc(N)c(Cl)cc1C(=O)NC1CN2CCC1CC2 (stereo not drawn) [ZACOPRIDE,R] cannot be ordered by Ki: over 10 µM for the first, over 10 µM for the second.
